Where “and” joins values, the source holds several entries; their conditions need not be identical. Equal entries are not always repeated.

Test [1] deals with SARS-CoV-2 B.1.1.7 (Alpha). As to the kind of experiment: microbe, parasite or virus in culture. The format is cell-based. As to conditions: UK.
Another test deals with SARS-CoV-2 P.1 (Gamma). As to the kind of experiment: microbe, parasite or virus in culture. The format is cell-based. As to conditions: Brazil.

Take `CS(=O)(=O)NC(CCC(N)=O)C(=O)NC(Cc1ccccc1)C(=O)NC(CCCNC(=N)N)C(=O)c1nc2ccccc2s1` (centres unmarked) [Compound N-0385, Ms-QFR-kbt]: the “infection, dose response Figure 3c (nucleocapsid)” value in test [1] (log [C] (nM) -0.49485) is 100.507 and 68.1892 and 93.9276 and 91.6566 and 100; in test [1] (log [C] (nM) -1.19382) it was 96.9973 and 100 and 88.1248; with SARS-CoV-2 P.1 (Gamma) (log [C] (nM) 0.20412), 100 and 81.7088 and 65.1564; with SARS-CoV-2 P.1 (Gamma) (log [C] (nM) -0.49485) it was 100 and 84.3433; in the test on SARS-CoV-2 P.1 (Gamma) (log [C] (nM) -1.19382), 91.5649 and 100 and 99.1769. Further, the “infection, dose response Figure 3d (dsRNA)” value in test [1] (log [C] (nM) -0.49485) is 68.6997 and 68.3556 and 77.9197 and 68.9 and 100; in test [1] (log [C] (nM) -1.19382), 83.4401 and 68.4372 and 71.2209 and 84.9067 and 100; in the test with SARS-CoV-2 P.1 (Gamma) (log [C] (nM) 0.20412) it was 75.4607 and 65.7035 and 100 and 82.6067; in the test with SARS-CoV-2 P.1 (Gamma) (log [C] (nM) 3), 8.633; in the test with SARS-CoV-2 P.1 (Gamma) (log [C] (nM) -0.49485), 100 and 92.9624 and 97.3601; in the test with SARS-CoV-2 P.1 (Gamma) (log [C] (nM) -1.19382), 98.3176 and 96.7175 and 100 and 97.435.

These data come from article PMC9095466 (Nature, 2022).
